Measured values published in article PMC4967831, “Structural dissection of a complex Bacteroides ovatus gene locus conferring xyloglucan metabolism in the human gut” (Open Biology, 2016).

How the values were obtained:
Format in all cases: binding
[1] = biological target: T1, BoGH31 (Bacteroides ovatus, UniProt A7LXT0); assay: crystal structure of covalent glycosyl-enzyme intermediate (soak)
T1 construct: gene BACOVA_02646; pET-YSBL3C construct with N-terminal His6-tag and 3C-cleavage site

[2] = biological target: T2, BoGH43A (Bacteroides ovatus, UniProt A7LXT8); assay: ITC and crystal structure of the complex
T2 construct: gene BACOVA_02654; pET28a construct with N-terminal His6-tag
T2 sequence (A7LXT8 21-526): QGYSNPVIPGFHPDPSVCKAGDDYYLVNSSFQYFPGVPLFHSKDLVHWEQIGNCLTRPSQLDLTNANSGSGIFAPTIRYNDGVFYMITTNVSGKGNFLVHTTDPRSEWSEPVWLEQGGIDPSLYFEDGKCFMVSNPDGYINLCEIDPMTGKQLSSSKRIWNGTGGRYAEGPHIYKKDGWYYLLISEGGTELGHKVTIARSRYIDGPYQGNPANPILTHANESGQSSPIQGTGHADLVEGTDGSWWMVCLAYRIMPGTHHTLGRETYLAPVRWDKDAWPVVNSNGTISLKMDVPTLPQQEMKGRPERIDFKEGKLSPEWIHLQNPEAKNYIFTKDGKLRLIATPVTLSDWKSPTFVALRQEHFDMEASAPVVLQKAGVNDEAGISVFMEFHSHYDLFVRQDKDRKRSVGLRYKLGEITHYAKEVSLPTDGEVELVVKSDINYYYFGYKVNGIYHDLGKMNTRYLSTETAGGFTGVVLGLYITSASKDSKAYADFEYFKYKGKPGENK

[3] = biological target: T3, BoGH43B (Bacteroides ovatus, UniProt A7LXU0); assay: ITC
T3 construct: gene BACOVA_02656; expressed from pET21a(BoGH43B)
T3 sequence (A7LXU0 24-529): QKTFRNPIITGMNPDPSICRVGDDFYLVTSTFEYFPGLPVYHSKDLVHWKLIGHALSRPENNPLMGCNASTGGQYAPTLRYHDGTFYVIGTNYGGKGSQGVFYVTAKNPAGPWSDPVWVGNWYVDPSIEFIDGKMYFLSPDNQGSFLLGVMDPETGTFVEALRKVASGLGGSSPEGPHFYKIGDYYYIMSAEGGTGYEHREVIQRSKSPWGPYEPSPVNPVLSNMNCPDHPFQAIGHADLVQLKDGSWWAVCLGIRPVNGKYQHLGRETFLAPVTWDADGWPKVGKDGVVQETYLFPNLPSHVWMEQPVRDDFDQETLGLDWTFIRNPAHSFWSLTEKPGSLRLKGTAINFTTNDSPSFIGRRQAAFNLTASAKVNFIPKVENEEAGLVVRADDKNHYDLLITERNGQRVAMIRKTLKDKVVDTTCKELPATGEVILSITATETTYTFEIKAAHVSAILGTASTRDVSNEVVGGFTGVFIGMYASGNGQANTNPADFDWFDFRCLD

[4] = biological target: T2, BoGH43A; assay: crystal structure of the complex (soak); too weak to be measured by ITC
[5] = biological target: T4, BoGH3B (Bacteroides ovatus, UniProt A7LXU3); assay: crystal structure; glucose co-purified in the active site
T4 construct: gene BACOVA_02659; expressed from pET21a(GH3B)
T4 sequence (A7LXU3 23-786): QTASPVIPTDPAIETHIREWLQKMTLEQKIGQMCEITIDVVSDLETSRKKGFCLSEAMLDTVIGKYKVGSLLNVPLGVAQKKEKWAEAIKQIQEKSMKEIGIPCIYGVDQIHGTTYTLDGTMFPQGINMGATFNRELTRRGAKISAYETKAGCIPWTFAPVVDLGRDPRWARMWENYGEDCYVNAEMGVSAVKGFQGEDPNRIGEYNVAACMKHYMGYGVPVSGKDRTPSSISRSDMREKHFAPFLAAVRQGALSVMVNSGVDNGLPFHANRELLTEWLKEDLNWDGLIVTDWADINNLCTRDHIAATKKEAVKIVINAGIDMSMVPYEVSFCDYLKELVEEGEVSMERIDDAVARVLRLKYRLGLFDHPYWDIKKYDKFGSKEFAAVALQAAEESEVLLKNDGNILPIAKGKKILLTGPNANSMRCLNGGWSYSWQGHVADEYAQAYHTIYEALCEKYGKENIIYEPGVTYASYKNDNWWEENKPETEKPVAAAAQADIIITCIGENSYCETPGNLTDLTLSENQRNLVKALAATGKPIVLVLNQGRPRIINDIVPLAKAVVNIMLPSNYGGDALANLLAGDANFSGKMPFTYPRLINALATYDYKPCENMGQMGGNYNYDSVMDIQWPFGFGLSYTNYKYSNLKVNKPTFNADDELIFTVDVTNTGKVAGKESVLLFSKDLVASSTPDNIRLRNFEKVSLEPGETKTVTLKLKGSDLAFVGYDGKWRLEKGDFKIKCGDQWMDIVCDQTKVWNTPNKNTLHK

T1 sequence (A7LXT0 22-954): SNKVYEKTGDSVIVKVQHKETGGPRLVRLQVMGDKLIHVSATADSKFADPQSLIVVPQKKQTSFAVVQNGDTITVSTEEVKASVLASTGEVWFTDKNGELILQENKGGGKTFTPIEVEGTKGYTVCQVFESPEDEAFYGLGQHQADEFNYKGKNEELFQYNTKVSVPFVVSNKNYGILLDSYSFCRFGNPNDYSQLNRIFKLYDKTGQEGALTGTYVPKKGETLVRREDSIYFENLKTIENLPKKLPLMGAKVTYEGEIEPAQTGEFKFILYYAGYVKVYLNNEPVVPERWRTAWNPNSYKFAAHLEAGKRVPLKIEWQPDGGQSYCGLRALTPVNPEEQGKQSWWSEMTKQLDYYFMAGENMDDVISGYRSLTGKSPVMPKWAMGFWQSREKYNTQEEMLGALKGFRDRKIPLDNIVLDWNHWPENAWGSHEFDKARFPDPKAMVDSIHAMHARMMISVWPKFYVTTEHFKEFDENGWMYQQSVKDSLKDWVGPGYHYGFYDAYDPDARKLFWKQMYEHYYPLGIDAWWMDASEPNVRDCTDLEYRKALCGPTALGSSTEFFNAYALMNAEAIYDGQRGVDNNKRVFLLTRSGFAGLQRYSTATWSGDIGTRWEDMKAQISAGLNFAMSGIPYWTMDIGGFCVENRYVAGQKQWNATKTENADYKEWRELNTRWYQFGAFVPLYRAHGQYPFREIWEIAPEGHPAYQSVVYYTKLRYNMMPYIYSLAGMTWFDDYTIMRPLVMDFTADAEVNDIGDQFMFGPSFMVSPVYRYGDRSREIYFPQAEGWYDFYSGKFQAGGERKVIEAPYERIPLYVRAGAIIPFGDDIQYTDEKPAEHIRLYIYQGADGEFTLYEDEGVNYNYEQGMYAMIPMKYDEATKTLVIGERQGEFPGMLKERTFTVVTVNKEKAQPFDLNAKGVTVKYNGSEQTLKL

`OC[C@]1(F)O[C@H](F)[C@H](O)[C@@H](O)[C@@H]1O` [5FIdoF, 5-fluoro-β-L-idosyl fluoride] was tested, and the “crystal structure of covalent glycosyl-enzyme intermediate (soak)” value [1] was 5FIdoF forms an α-glycosidic linkage to the side-chain carboxylate of Asp553.

In the case of `OC[C@@H]1NC[C@H](O)[C@H]1O` [AraDNJ], the Kd [2] is reported as 35 ± 4 µM and the Kd [3] is reported as 111 ± 6 µM.

With `OC[C@@H]1O/C(=N\O)[C@H](O)[C@H]1O` [AraLOG, (Z)-L-Arabinonhydroximo-1,4-lactone] the “crystal structure of the complex (soak); too weak to be measured by ITC” value [4] was “the inhibitor stacking against Tyr187 while also H-bonding directly to the side chains of Glu210 and Glu189”.

For `OC[C@H]1O[C@@H](O)[C@H](O)[C@@H](O)[C@@H]1O` [glucose], the “crystal structure; glucose co-purified in the active site” value [5] was “BoGH3B was found to co-purify with glucose in its active site (figure 5b)”.
